Laboratory results as given in ChEMBL document CHEMBL1811895, “Regioselective synthesis of water-soluble monophosphate derivatives of combretastatin A-1” (J Nat Prod, 2011).
pIC50: −log10 of the molar value.

Key:
[1] = system: NCI-H460; assay: Cytotoxicity against human NCI-H460 cells by SRB assay; assay type: functional
[2] = system: SK-OV-3; assay: Cytotoxicity against human SKOV3 cells by SRB assay; assay type: functional
[3] = system: DU-145; assay: Cytotoxicity against human DU145 cells by SRB assay; assay type: functional
[4] = Inhibition of tubulin polymerization in bovine brain after 20 mins by spectrophotometry; parameters: species or system Bos taurus

| Compound | GI50 [1] [µM] | GI50 [2] [µM] | GI50 [3] [µM] | pIC50 [4] |
| --- | --- | --- | --- | --- |
| COc1ccc(/C=C/c2cc(OC)c(OC)c(OC)c2)c(OP(=O)(O)O)c1O | 1.55 | 0.465 | 2.13 | – |
| COc1ccc(/C=C\c2cc(OC)c(OC)c(OC)c2)c(OP(=O)(O)O)c1O | 0.00356 | 0.00164 | 0.00277 | < 4.40 |
| COc1cc(/C=C\c2ccc(OC)c(OP(=O)(O)O)c2O)cc(OC)c1OC | 0.0334 | 0.0026 | 0.0155 | < 4.40 |
| COc1cc(/C=C\c2ccc(OC)c(OP(=O)(O)O)c2OP(=O)(O)O)cc(OC)c1OC | 0.0133 | 0.00103 | 0.00287 | < 4.40 |
| COc1ccc(/C=C/c2cc(OC)c(OC)c(OC)c2)c(O)c1O | 1.32 | 2.27 | 2.14 | 4.96 |
| COc1ccc(/C=C\c2cc(OC)c(OC)c(OC)c2)c(O)c1O [COMBRETASTATIN A-1] | 0.0153 | 0.0384 | 0.0326 | 5.72 |
| COc1cc(/C=C/c2ccc(OC)c(OP(=O)(O)O)c2O)cc(OC)c1OC | 0.336 | 0.681 | 0.52 | – |
